In patent US8715704B2, “Lure” (London School of Hygiene & Tropical Medicine, priority 2008, dated 2014):
Where a name gives a salt, the structure may show the parent alone.

What was measured:
Lardoglyphus konoi = details: 10 ng/μl; Kuwahara et al., 1991; cited from earlier work
Dermatophagoides farinae [1] = test: Acaricide lethal dosage bioassay; assay type: in vivo
[2] = system: Dermatophagoides pteronyssinus; test: Y-tube olfactometer behavioural bioassay; assay type: in vivo; details: for global responses (males and females) to the arm containing neryl formate: x^2=11.025, P<0.01, n=40
Description: (§1) A Y-tube olfactometer was used to observe the behavioural responses elicited by house dust mites, as described previously (Skelton et al., in press). For each experiment, a treatment and control stimulus was added (1 μl) to separate filter paper discs (1.5 cm diameter), allowed to dry for 1 min, and placed into each arm of the olfactometer. A power analysis was carried out at 80% power, 95% significance; to calculate appropriate sample sizes to see 40% difference in effect (70% to treatment) (STATA 8.2 software). […] Treatments comprised: (1) chromatography fractions derived from the D. farinae extract .v. hexane, (2) neryl formate (10 & 100 ng/μl) .v. hexane, (3) a female D. farinae extract .v. neryl formate, (4) a male D. farinae extract .v. neryl formate, and (5) a female D. pteronyssinus extract .v. neryl formate. Categorical data from the Y-tube olfactometer bioassays were tested with a Chi-squared test for goodness of fit, with a Yates correction factor (preference to a particular arm) (Fowler et al., 1998). Time data were log 10-transformed prior to parametric data analysis. A three-way ANOVA (Minitab 11 for Windows) was carried out to analyse if the log time to make a decision in the treatment arm (neryl formate) was affected by the concentration of neryl formate, gender and house dust mite species studied.

Dermatophagoides farinae [3] = test: Y-tube olfactometer behavioural bioassay; assay type: in vivo
Description: as §1

[4] = system: Dermatophagoides pteronyssinus; test: Semi-field carpet disc lure bioassay with sticky trap; assay type: in vivo; details: 10 ng/10 μl neryl formate in hexane on filter paper v. hexane; cut pile and loop pile carpet; 1-40 min
Description: (§2) Initially, a bioassay was designed to test the efficacy of neryl formate in attracting populations of the American house dust mite, Dermatophagoides farinae, and the European house dust mite, D. pteronyssinus, from carpet sections. The bioassay involved the placement of D. farinae and D. pteronyssinus onto cut carpet discs (5 cm in diameter) which were placed underneath a glass Petri dish to maintain humidity. Two types of carpet (both obtained from Heuga Home Flooring BV) were tested: cut pile (Simply Soft Aquarius) and loop pile (Working Week Boucle Ink Pad). Aliquots of a 10 ng/10 μl neryl formate solution (in hexane) were used for the lure treatment, whilst hexane alone was used for the control. Both solutions were injected onto filter paper discs (2 cm diameter) and placed into the centre of the carpet discs. After an allocated time interval (1, 5, 10, 20 or 40 min), a sticky trap was placed onto the carpet to capture the mites, and subsequently placed under a microscope to record the amount and position of the mites, to ascertain if the mites had moved from their original position. Data were analysed using a generalized linear model assuming a binomial distribution with a logit link and dispersion parameter equal to 1.0 (see Table 1). The analysis of deviance for both responses was obtained using the MODEL procedure as implemented in GenStat 8.0 (Rothamsted Research).

Dermatophagoides farinae [5] = test: as above; assay type: in vivo; details: 10 ng/10 μl neryl formate in hexane on filter paper v. hexane; cut pile and loop pile carpet; 1-40 min
Description: as §2

[6] = system: Caloglyphus polyphyllae mites; details: Shimizu et al., 2001; cited from earlier work
[7] = 10 ng v. hexane, x^2=6.05, P<0.05, n=20

Structure (SMILES): CCC[C@@H](C)C[C@@H](C)C[C@@H](C)C[C@@H](C)OC=O [(1R,3R,5R,7R) lardolure, (1R,3R,5R,7R)-1,3,5,7-tetramethyldecyl formate]
- concentration at which mites significantly respond (Lardoglyphus konoi): 10 ppm

Structure (SMILES): C/C=C(\C)C(=O)O[C@H]1C[C@@H](OC(C)=O)[C@@]2(C(=O)OC)CO[C@H]3[C@@H](O)[C@@](C)([C@]45O[C@@]4(C)[C@H]4C[C@@H]5O[C@@H]5OC=C[C@@]54O)[C@H]4[C@]1(CO[C@]4(O)C(=O)OC)[C@@H]32 [azadirachtin]
- mortality (Dermatophagoides farinae [1]): little mortality

Structure (SMILES): CC(C)=CCC/C(C)=C\COC=O [neryl formate, (Z)-3,7-dimethyl-2,6-octadienyl formate]
- response of females to neryl formate ([2]; 10 ng v. hexane, x^2=4.05, P<0.05, n=20): significant response
- response of males to neryl formate [2, 7]: significant response
- global responses (males and females) to the arm containing neryl formate ([2]; 10 ng v. hexane): significant
- response of females to neryl formate ([2]; 100 ng v. hexane, x^2=8.45, P<0.01, n=20): significant response
- global responses (males and females) to the arm containing neryl formate ([2]; 100 ng v. hexane): significant
- response to synthetic neryl formate or con-specific extract ([2]; females, v. female D. pteronyssinus extract, x^2=0.06, P=0.80, n=16): not significantly different
- response of females to neryl formate (Dermatophagoides farinae [3]; [7]): significant response
- global responses of males and females to the arm containing neryl formate (Dermatophagoides farinae [3]; 10 ng v. hexane, x^2=9.025, P<0.01, n=40): significant
- global responses of males and females to the arm containing neryl formate (Dermatophagoides farinae [3]; 100 ng v. hexane, x^2=4.225, P<0.05, n=40): significant
- response of males to neryl formate (Dermatophagoides farinae [3]; 100 ng v. hexane, x^2=6.05, P<0.05, n=20): significant response
- response to neryl formate or con-specific extract (Dermatophagoides farinae [3]; females, v. female D. farinae extract, x^2=1.38, P=0.24, n=18): no significant difference
- response to synthetic neryl formate or con-specific extract containing naturally produced neryl formate (Dermatophagoides farinae [3]; males, v. male D. farinae extract, x^2=0.10, P=0.75, n=14): no significant difference
- number of mites retrieved on sticky traps [4]: significantly increased
- number of mites retrieved on sticky traps (Dermatophagoides farinae [5]): significantly increased

Structure (SMILES): CC(C)=CC/C=C(/C=O)CC=O [β-acaridial]
- amount at which mites significantly respond [6]: 10 ng
